Data reported in ChEMBL document CHEMBL4406878, “Antiviral efficacy of bromo-anilino substituents of 4,5-dihydrofuran-3-carboxylate compound CW-33 against Japanese encephalitis virus” (Bioorg Med Chem Lett, 2019).
Active and inactive are the calls of the source. No cut-off for these calls is given here.

How the values were obtained:
[1] = tested on: Japanese encephalitis virus; assay: Antiviral activity against Japanese encephalitis virus infected in human TE671 cells assessed as reduction in virus-induced cytopathic effect at 10 to 100 uM treated immediately post-infection measured at 36 hrs post-infection by inverted microscopic analysis; type: functional, organism-based
[2] = tested on: Japanese encephalitis virus; assay: Antiviral activity against Japanese encephalitis virus infected in human TE671 cells assessed as inhibition of extracellular viral particles production by measuring reduction in virus yield measured after 36 hrs by plaque assay; type: functional, organism-based; details: for IC50: TE-671, 36 h
[3] = Therapeutic index, ratio of CC50 for human TE671 cells to IC50 for antiviral activity against Japanese encephalitis virus infected in human TE671 cells assessed as reduction in virus yield by plaque assay; type: toxicity, cell-based; details: read-out: Ratio CC50/IC50
[4] = tested on: Japanese encephalitis virus; assay: Antiviral activity against Japanese encephalitis virus infected in human TE671 cells assessed as reduction in virus infectivity by measuring decrease in NS3-positive cells treated immediately post-infection measured after 24 hrs by DAPI-staining based immunofluorescence analysis; type: functional, organism-based; details: for IC50: TE-671, 24 h
[5] = tested on: Japanese encephalitis virus; assay: (§1) Antiviral activity against Japanese encephalitis virus infected in human TE671 cells assessed as reduction in virus entry at late stage by measuring decrease in NS3-positive cells at 1 to 10 uM treated at 1 hr post-infection followed by virus/compound mixture wash-out at 1 hr post-incubation followed by culturing of cells for 24 hrs by DAPI-staining based immunofluorescence analysis; type: functional, organism-based
[6] = tested on: Japanese encephalitis virus; assay: Inhibition of synthesis of Japanese encephalitis virus RNA genome transfected as EGFP replicon in human TE671 cells assessed as lowered ratio of negative to positive sense strand RNA at 10 uM treated at 1 hr post-transfection and measured at 36 hrs post treatment by RT-PCR analysis; type: functional, organism-based
[7] = Cytotoxicity against human TE671 cells assessed as reduction in cell viability after 48 hrs by MTT assay; type: cell-based, TE-671
[8] = tested on: Japanese encephalitis virus; assay: Antiviral activity against Japanese encephalitis virus infected in human TE671 cells assessed as decline in infected cell apoptotic fraction by measuring proportion of cells at subG1 phase treated immediately post-infection measured at 36 hrs post-infection by PI-staining based flow cytometric analysis; type: functional, organism-based; details: for IC50: TE-671, 36 h
[9] = tested on: Japanese encephalitis virus; assay: as §1, with “early” for “late”, “cells” for “cells at 1 to 10 uM”, “immediately after viral infection” for “at 1 hr post-infection”; type: functional, organism-based; details: TE-671
[10] = tested on: Japanese encephalitis virus; assay: as §1, with “cells” for “cells at 1 to 10 uM”; type: functional, organism-based; details: TE-671
[11] = tested on: Japanese encephalitis virus; assay: Antiviral activity against Japanese encephalitis virus infected in human TE671 cells assessed as inhibition of intracellular virion production at 10 uM measured at 24 to 48 hrs post-infection by plaque assay; type: functional, organism-based
[12] = tested on: Japanese encephalitis virus; assay: Antiviral activity against Japanese encephalitis virus infected in human TE671 cells assessed as reduction in viral yield treated immediately post-viral infection measured at 72 hrs post-infection by plaque assay; type: functional, organism-based; details: TE-671, 72 h
Enterovirus A71 = assay: Antiviral activity against Enterovirus A71 infected in human RD cells assessed as reduction in viral yield measured at 48 hrs post-infection by plaque reduction assay; type: functional, organism-based; details: Enterovirus A
[13] = tested on: Japanese encephalitis virus; assay: Antiviral activity against Japanese encephalitis virus infected in hamster BHK-21 cells assessed as reduction in viral yield treated immediately post-viral infection measured at 72 hrs post-infection by plaque assay; type: functional, organism-based; details: BHK-21, 72 h

Row | Compound | inhibition [1] | inhibition [2] | IC50 [2] | selectivity ratio [3] | inhibition [4] | IC50 [4] | inhibition [5] | inhibition [6] | CC50 at 48 h [7] | inhibition [8] | IC50 [8] | IC50 [9] | IC50 [10] | inhibition [11] | IC50 [12] | IC50 (Enterovirus A71) | IC50 [13]
1 | CCOC(=O)C1=C(Nc2ccc(Br)cc2)OCC1=O | Active | Dose-dependent effect | 7.8 µM | 16.6 | Dose-dependent effect | 0.4 µM | Active | inactive | 129 µM | Dose-dependent effect | 2 µM | – | – | – | – | – | –
2 | CCOC(=O)C1=C(Nc2ccccc2Cl)OCC1=O | Active | – | – | – | – | – | – | – | > 100 µM | Dose-dependent effect | 50.5 µM | – | – | – | – | – | –
3 | CCOC(=O)C1=C(Nc2ccc(Cl)cc2)OCC1=O | Active | – | – | – | – | – | – | – | > 100 µM | inactive | – | – | – | – | – | – | –
4 | CCOC(=O)C1=C(Nc2ccccc2Br)OCC1=O | Active | Dose-dependent effect | 4.6 µM | 50.2 | Dose-dependent effect | 0.2 µM | – | Active | 232 µM | Dose-dependent effect | 3.2 µM | 0.2 µM | 10.2 µM | Active | – | – | –
5 | CCOC(=O)C1=C(Nc2cccc(Br)c2)OCC1=O | Active | Dose-dependent effect | 12.1 µM | 12.4 | Dose-dependent effect | 3.2 µM | Active | Active | 151 µM | Dose-dependent effect | 3.1 µM | – | – | – | – | – | –
6 | CCOC(=O)C1=C(Nc2cccc(Cl)c2)OCC1=O | Active | – | – | – | – | – | – | – | > 100 µM | inactive | – | – | – | – | – | – | –
7 | CCOC(=O)C1=C(Nc2cc(C)cc(C)c2)OCC1=O | – | – | – | – | – | – | – | – | – | – | – | – | – | – | 12.7 µM | 200 µM | 12.7 µM
